In ChEMBL document CHEMBL1125758, “(Acyloxy)alkyl carbamate prodrugs of norfloxacin” (J Med Chem, 1991):
Values after ≈ are worked out from the molar mass of the structure shown.

Assays:
[1] = Half life in a medium of rat intestinal homogenate.; type: ADME
[2] = Solubility in water at 25 degree Centigrade; type: physicochemical; settings: read-out: S
Rhesus monkey [3] = experiment: (§1) Serum conc at 3 hours following 25 mg/kg dose; type: functional, Macaca mulatta
Proteus mirabilis [4] = experiment: Antibacterial activity against Prot. mirabilis GmR(2830); type: functional
Staphylococcus aureus [5] = experiment: Antibacterial activity against Staphylococcus aureus (2865); type: functional
Monkey = experiment: % dose recovered in urine; type: functional, Cercopithecidae
Escherichia coli [6] = experiment: Antibacterial activity against Escherichia coli TEM 2+(4351); type: functional
Streptococcus sp. = experiment: Antibacterial activity against Strep. Faecalis (2864); type: functional
Escherichia coli [7] = experiment: Antibacterial activity against Escherichia coli (2891); type: functional
Staphylococcus aureus [8] = experiment: Antibacterial activity against Staphylococcus aureus GmR Meth(4310); type: functional
Rhesus monkey [9] = experiment: (§2) Urine conc 0-5 hours following 25 mg/kg dose; type: functional, Macaca mulatta
[10] = Half life in a medium of rat serum.; type: ADME, organism-based
Klebsiella aerogenes [11] = experiment: Antibacterial activity against Ent. aerogenes(2828); type: functional
[12] = Half life in a medium of dog serum.; type: ADME, organism-based, Canis lupus familiaris
Pseudomonas aeruginosa [13] = experiment: Antibacterial activity against Ps. aeruginoa(4279); type: functional
Proteus vulgaris [14] = experiment: Antibacterial activity against Prot. vulgaris(2829); type: functional
Pseudomonas aeruginosa [15] = experiment: Antibacterial activity against Ps. aeruginosa RPL11+(3350); type: functional
Enterobacter cloacae [16] = experiment: Antibacterial activity against Ent. cloacae P99-(2647); type: functional
[17] = Half life in a medium of phosphate buffer in pH 7.4; type: ADME
Salmonella typhimurium = experiment: Antibacterial activity against Sal. Typhimurium (3860); type: functional, Salmonella enterica subsp. enterica serovar Typhimurium; settings: Salmonella enterica
[18] = Half life in a medium of human serum.; type: ADME, organism-based
[19] = Solubility in bicarbonate buffer (0.05 M) at 25 degree centigrade(pH 8.5); type: physicochemical; settings: read-out: S
[20] = Solubility in phosphate buffer (0.1 M) at 25 degree centigrade(pH 7.4); type: physicochemical
Serratia marcescens = experiment: Antibacterial activity against Ser. marcescens (2840); type: functional
Morganella morganii [21] = experiment: Antibacterial activity against Prot. morganii SmR(2833); type: functional
Klebsiella pneumoniae [22] = experiment: Antibacterial activity against Klebsiella pneumoniae K1+(4354); type: functional
Pseudomonas aeruginosa [23] = experiment: Antibacterial activity against Ps. aeruginoa(2835); type: functional
Staphylococcus aureus [24] = experiment: Antibacterial activity against Staphylococcus aureus (2868); type: functional
Klebsiella pneumoniae [25] = experiment: Antibacterial activity against Klebsiella pneumoniae (4005); type: functional
Enterobacter cloacae [26] = experiment: Antibacterial activity against Ent. cloacae 99+(2646); type: functional; settings: P99
[27] = Solubility in citrate buffer (0.1 M) at 25 degree centigrade(pH 5); type: physicochemical; settings: for solubility: citrate buffer, read-out: S
Escherichia coli [28] = experiment: Antibacterial activity against Escherichia coli DC2(4353); type: functional
Rhesus monkey [29] = experiment: Urine conc 0-24 hours following 25mg/kg dose; type: functional, Macaca mulatta
Escherichia coli [30] = experiment: Antibacterial activity against Escherichia coli TEM 2+ DC2(4352); type: functional
Escherichia coli [31] = experiment: Antibacterial activity against Escherichia coli DC2 (4353); type: functional
[32] = Urine conc 0-24 hours following 25 mg/kg dose; type: ADME, organism-based, Macaca mulatta; parameters: dose 25 mg/kg; settings: rhesus monkey, in vivo
Pseudomonas aeruginosa [33] = experiment: Antibacterial activity against Ps. aeruginosa RPL11+ (3350); type: functional
Morganella morganii [34] = experiment: Antibacterial activity against Prot. morganii SmR (2833); type: functional
Escherichia coli [35] = experiment: Antibacterial activity against Escherichia coli TEM 2+ (4351); type: functional
Escherichia coli [36] = experiment: Antibacterial activity against Escherichia coli TEM 2+ DC2 (4352); type: functional
Klebsiella pneumoniae [37] = experiment: Antibacterial activity against Klebsiella pneumoniae K1+ (4354); type: functional
[38] = as §1; type: ADME, organism-based, Macaca mulatta; parameters: dose 25 mg/kg; settings: rhesus monkey, read-out: Concentration_plasma
Pseudomonas aeruginosa [39] = experiment: Antibacterial activity against Ps. aeruginosa (2835); type: functional
Enterobacter cloacae [40] = experiment: Antibacterial activity against Ent. cloacae P99- (2647); type: functional
[41] = as §2; type: ADME, organism-based, Macaca mulatta; parameters: dose 25 mg/kg; settings: rhesus monkey, in vivo
Staphylococcus aureus [42] = experiment: Antibacterial activity against Staphylococcus aureus GmR Meth (4310); type: functional
Enterobacter cloacae [43] = experiment: Antibacterial activity against Ent. cloacae 99+ (2646); type: functional; settings: P99
Proteus vulgaris [44] = experiment: Antibacterial activity against Prot. vulgaris (2829); type: functional
Proteus mirabilis [45] = experiment: Antibacterial activity against Prot. mirabilis GmR (2830); type: functional
Klebsiella aerogenes [46] = experiment: Antibacterial activity against Ent. aerogenes (2828); type: functional
Enterococcus faecalis = experiment: Antibacterial activity against Strep. faecalis (2864); type: functional
Pseudomonas aeruginosa [47] = experiment: Antibacterial activity against Ps. aeruginosa (4279); type: functional

CCn1cc(C(=O)O)c(=O)c2cc(F)c(N3CCN(C(=O)OCOC(C)=O)CC3)cc21
half-life [1]: 2.6 min
solubility [2]: 60 µg/mL (≈ 138 µM)
Concentration_plasma (Rhesus monkey [3]): 0.36 µg/mL
MIC (Proteus mirabilis [4]): > 128 µg/mL
MIC (Staphylococcus aureus [5]): 2 µg/mL (≈ 4.59 µM)
Dose (Monkey): 7.23%
MIC (Escherichia coli [6]): > 128 µg/mL
MIC (Streptococcus sp.): > 128 µg/mL
MIC (Escherichia coli [7]): 128 µg/mL (≈ 294 µM)
MIC (Staphylococcus aureus [8]): 2 µg/mL (≈ 4.59 µM)
Concentration_urine (Rhesus monkey [9]): 25.03 µg/mL
half-life [10]: 1.5 min
MIC (Klebsiella aerogenes [11]): > 128 µg/mL
half-life [12]: 6 min
MIC (Pseudomonas aeruginosa [13]): > 128 µg/mL
MIC (Proteus vulgaris [14]): > 128 µg/mL
MIC (Pseudomonas aeruginosa [15]): > 128 µg/mL
MIC (Enterobacter cloacae [16]): > 128 µg/mL
half-life [17]: 128 h
MIC (Salmonella typhimurium): > 128 µg/mL
half-life [18]: 116 min
solubility [19]: 410 µg/mL (≈ 942 µM)
solubility [20]: 50 µg/mL (≈ 115 µM)
MIC (Serratia marcescens): > 128 µg/mL
MIC (Morganella morganii [21]): 8 µg/mL (≈ 18.4 µM)
MIC (Klebsiella pneumoniae [22]): > 128 µg/mL
MIC (Pseudomonas aeruginosa [23]): > 128 µg/mL
MIC (Staphylococcus aureus [24]): 1 µg/mL (≈ 2.3 µM)
MIC (Klebsiella pneumoniae [25]): 32 µg/mL (≈ 73.5 µM)
MIC (Enterobacter cloacae [26]): > 128 µg/mL
solubility [27]: 5 µg/mL (≈ 11.5 µM)
MIC (Escherichia coli [28]): > 128 µg/mL
Concentration_urine (Rhesus monkey [29]): 21.97 µg/mL
MIC (Escherichia coli [30]): > 128 µg/mL

CCn1cc(C(=O)O)c(=O)c2cc(F)c(N3CCNCC3)cc21 [NORFLOXACIN]
solubility [2]: 190 µg/mL (≈ 595 µM)
MIC (Escherichia coli [31]): 0.5 µg/mL (≈ 1.57 µM)
Concentration_urine [32]: 33780 ng/mL
MIC (Pseudomonas aeruginosa [33]): 1 µg/mL (≈ 3.13 µM)
MIC (Staphylococcus aureus [5]): 0.25 µg/mL (≈ 0.783 µM)
Dose (Monkey): 16.3%
MIC (Morganella morganii [34]): 0.06 µg/mL (≈ 0.188 µM)
MIC (Escherichia coli [35]): 0.03 µg/mL (≈ 0.0939 µM)
MIC (Escherichia coli [35]; Escherichia coli, read-out: MIC): 0.03 µg/mL (≈ 0.0939 µM)
MIC (Escherichia coli [36]): 0.5 µg/mL (≈ 1.57 µM)
MIC (Klebsiella pneumoniae [37]): 8 µg/mL (≈ 25.1 µM)
concentration at 3 h [38]: 760 ng/mL
MIC (Escherichia coli [7]): 0.06 µg/mL (≈ 0.188 µM)
MIC (Pseudomonas aeruginosa [39]): 1 µg/mL (≈ 3.13 µM)
MIC (Enterobacter cloacae [40]): 0.25 µg/mL (≈ 0.783 µM)
Concentration_urine [41]: 175860 ng/mL
MIC (Salmonella typhimurium): 0.5 µg/mL (≈ 1.57 µM)
MIC (Staphylococcus aureus [42]): 1 µg/mL (≈ 3.13 µM)
MIC (Enterobacter cloacae [43]): 1 µg/mL (≈ 3.13 µM)
solubility [19]: 210 µg/mL (≈ 658 µM)
MIC (Proteus vulgaris [44]): 0.06 µg/mL (≈ 0.188 µM)
MIC (Proteus mirabilis [45]): 0.06 µg/mL (≈ 0.188 µM)
solubility [20]: 200 µg/mL (≈ 626 µM)
MIC (Serratia marcescens): 4 µg/mL (≈ 12.5 µM)
MIC (Klebsiella aerogenes [46]): 0.5 µg/mL (≈ 1.57 µM)
MIC (Staphylococcus aureus [24]): 1 µg/mL (≈ 3.13 µM)
MIC (Klebsiella pneumoniae [25]): 0.06 µg/mL (≈ 0.188 µM)
S ([27]; buffer): 8 mg/mL
MIC (Enterococcus faecalis): 8 µg/mL (≈ 25.1 µM)
MIC (Pseudomonas aeruginosa [47]): 1 µg/mL (≈ 3.13 µM)

CCn1cc(C(=O)O)c(=O)c2cc(F)c(N3CCN(C(=O)OC(C)OC(C)=O)CC3)cc21 (centres undefined)
half-life [10]: 1.5 min
half-life [12]: 6 min
solubility [19]: 150 µg/mL (≈ 334 µM)
solubility [20]: 60 µg/mL (≈ 134 µM)
solubility [27]: 30 µg/mL (≈ 66.8 µM)
